According to EP2246037A2, “Anti-aging and whitening properties of quercetin, 18a-glycyrrhetinic acid, hederagenin and its derivatives” (Korres S.A. Natural Products, priority 2009, dated 2010):

Tested on: HFL-1 human diploid fibroblasts
Assay: β-galactosidase activity staining of continuously treated fibroblasts
Type: cell-based
Protocol: The steps, methods and results that were obtained regarding the anti-aging properties of the examined substances are the following: • 1) Study of the lifespan of human diploid fibroblasts in vitro in the presence of the substances. • 1.1. HFL-1 human diploid fibroblasts (HDFs) were used in in vitro conditions (growth at 37°C, 5% CO2 and 95% humidity). • 1.2. The cells were maintained in Dulbecco's modified Eagle's medium (DMEM ®; Invitrogen Life Technologies Inc.) supplemented with 10% (v/v) fetal calf serum, 100 Units/ml penicillin, 100 µg/ml strepromycin, 2 mM glutamine and 1% (v/v) non-essential amino acids (complete medium). • 1.3. The cells were constantly cultured in culture medium supplemented with the substances [final concentration for quercetin (QUER), 18α-glycyrrhetinic acid (18α GA), and hederagenin (HED): 2 µg/ml and for quercetin caprylate (QU-CAP) three concentrations were applied: 0.5, 2 and 5 µg/ml]. Quercetin, 18α-glycyrrhetinic acid and hederagenin were diluted in DMSO (dimethyl sulfoxide) whereas quercetin caprylate was diluted in caprilic/capric triglycerides (CAP). Therefore, the control cultures were incubated in medium supplemented with 0.1% DMSO or 0.1% CAP. • 1.4. The cells were replenished with fresh media supplemented with the substances or the diluents every 24 h and their numbers were examined using a Coulter Z2 ® counter (Coulter Corporation) until they reached senescence (approximately after 13 weeks). The cumulative population doublings performed by each culture were calculated using the following formula: CPD=Σ[PD] where PD=LOG[Nfinal/Ninitial]/LOG[2], where N final represents the number of cells that were measured when each culture reached confluence and N initial represents the number of cells that was initially seeded. • 1.5. Photographs of the cells maintained in cell culture and treated with the various substances for the same time period were taken. • 1.6. […] More specifically, cells that were incubated with quercetin caprylate gave up to 2.8% more population doublings as compared to the population doublings performed by the relative control cultures. Cells that were incubated with the other substances gave up to 2.9% more population doublings as compared to their relative control cultures. • 1.7. […] Cells that were treated with either of the tested substances maintained the young morphology for longer as compared to the control cultures (DMSO-treated and CAP-treated). […] Briefly, 10^5 cells from each culture were seeded in 6-well plates. After 24 h cells were washed with PBS (phosphate buffered saline), fixed in 0.2% glutaraldehyde and 2% formaldehyde for 5 min, washed again with PBS, and finally stained for 24 h at 37 °C in the absence of CO2, in staining solution (150 mM NaCl, 2 mM MgCl2, 5 mM K3Fe(CN)6, 40 mM citric acid, and 12 mM sodium phosphate, pH 6.0) containing 1 mg/ml 5-bromo-4-chloro-3-indolyl-β-D-galactoside. Photographs were then taken. • 1.3. […] HFL-1 HDFs that have senesced in vitro were used (growth at 37°C, 5% CO2 and 95% humidity). More specifically, middle aged HFL-1 HDFs (cpd 59) and terminally senescent HFL-1 HDFs (cpd 65) that had senesced in the absence of any substance were used. • 3.2. The cells were seeded and maintained in complete medium (see 1.2). Culture medium supplemented with the substances [final concentration for quercetin (QUER), 18α-glycyrrhetinic acid (18α GA), and hederagenin (HED): 2 µg/ml and for quercetin caprylate (QU-CAP) three concentrations were applied: 0.5, 2 and 5 µg/ml] or the diluents (0.1% DMSO or 0.1% CAP) were added 24 h later. The cells were replenished with fresh media supplemented with the substances or the diluents every 24 h for 1 week and their numbers were then examined using a Coulter Z2 ® counter (Coulter Corporation). • 3.3. Detection of β-galactosidase activity was performed in these cells as described above and photographs of the cells following β-galactosidase activity assay were taken. • 3.4. […]

Row | Compound | % β-galactosidase positive cells (2 µg/ml) | % β-galactosidase positive cells (0,5 µg/ml) | % β-galactosidase positive cells (5 µg/ml)
1 | O=c1c(O)c(-c2ccc(O)c(O)c2)oc2cc(O)cc(O)c12 [Quercetin] | 13.5% |  | 
2 | CC1(C)[C@@H](O)CC[C@]2(C)[C@H]3C(=O)C=C4[C@H]5C[C@@](C)(C(=O)O)CC[C@]5(C)CC[C@@]4(C)[C@]3(C)CC[C@@H]12 [18α-glycyrrhetinic acid] | 37.7% |  | 
3 | quercetin caprylate | 32.3% | 36.6% | 47%
4 | CC1(C)CC[C@]2(C(=O)O)CC[C@]3(C)C(=CC[C@@H]4[C@@]5(C)CC[C@H](O)[C@@](C)(CO)[C@@H]5CC[C@]43C)[C@@H]2C1 [Hederagenin] | 31.8% |  | 
